Reference: article PMC2765192 (Journal of medicinal chemistry, 2009)

Key:
[1] = molecular target: T1, human mGluR4 (Homo sapiens, UniProt Q14833); experiment: Fold shift of glutamate concentration-response curve, human mGluR4/Gqi5 cells; settings: fold shift of glutamate response curve to the left
[2] = molecular target: T1, human mGluR4; type: cell-based; settings: for mGluR4 PAM activity (in words): human mGluR4
[3] = Metabolic stability in rat liver microsomes; settings: parent remaining after the incubation period
[4] = Metabolic stability in human liver microsomes; settings: parent remaining after the incubation period
[5] = molecular target: rat mGluR4 (Rattus norvegicus, UniProt P31423)
[6] = molecular target: mGluR5 (Homo sapiens, UniProt P41594); experiment: mGluR subtype selectivity: mGluR5; settings: for separation in potencies compared to mGluR4: mGluR5 vs mGluR4; for PAM activity at mGluR5 (in words): selectivity
[7] = molecular target: mGluR8 (Homo sapiens, UniProt O00222); experiment: mGluR subtype selectivity: mGluR8; settings: for separation in potencies compared to mGluR4: mGluR8 vs mGluR4; for PAM activity at mGluR8 (in words): selectivity
[8] = Rat pharmacokinetics, brain and plasma levels after intraperitoneal dosing; settings: rats, nontoxic vehicles

Chain of mGluR5 (P41594 21-1212): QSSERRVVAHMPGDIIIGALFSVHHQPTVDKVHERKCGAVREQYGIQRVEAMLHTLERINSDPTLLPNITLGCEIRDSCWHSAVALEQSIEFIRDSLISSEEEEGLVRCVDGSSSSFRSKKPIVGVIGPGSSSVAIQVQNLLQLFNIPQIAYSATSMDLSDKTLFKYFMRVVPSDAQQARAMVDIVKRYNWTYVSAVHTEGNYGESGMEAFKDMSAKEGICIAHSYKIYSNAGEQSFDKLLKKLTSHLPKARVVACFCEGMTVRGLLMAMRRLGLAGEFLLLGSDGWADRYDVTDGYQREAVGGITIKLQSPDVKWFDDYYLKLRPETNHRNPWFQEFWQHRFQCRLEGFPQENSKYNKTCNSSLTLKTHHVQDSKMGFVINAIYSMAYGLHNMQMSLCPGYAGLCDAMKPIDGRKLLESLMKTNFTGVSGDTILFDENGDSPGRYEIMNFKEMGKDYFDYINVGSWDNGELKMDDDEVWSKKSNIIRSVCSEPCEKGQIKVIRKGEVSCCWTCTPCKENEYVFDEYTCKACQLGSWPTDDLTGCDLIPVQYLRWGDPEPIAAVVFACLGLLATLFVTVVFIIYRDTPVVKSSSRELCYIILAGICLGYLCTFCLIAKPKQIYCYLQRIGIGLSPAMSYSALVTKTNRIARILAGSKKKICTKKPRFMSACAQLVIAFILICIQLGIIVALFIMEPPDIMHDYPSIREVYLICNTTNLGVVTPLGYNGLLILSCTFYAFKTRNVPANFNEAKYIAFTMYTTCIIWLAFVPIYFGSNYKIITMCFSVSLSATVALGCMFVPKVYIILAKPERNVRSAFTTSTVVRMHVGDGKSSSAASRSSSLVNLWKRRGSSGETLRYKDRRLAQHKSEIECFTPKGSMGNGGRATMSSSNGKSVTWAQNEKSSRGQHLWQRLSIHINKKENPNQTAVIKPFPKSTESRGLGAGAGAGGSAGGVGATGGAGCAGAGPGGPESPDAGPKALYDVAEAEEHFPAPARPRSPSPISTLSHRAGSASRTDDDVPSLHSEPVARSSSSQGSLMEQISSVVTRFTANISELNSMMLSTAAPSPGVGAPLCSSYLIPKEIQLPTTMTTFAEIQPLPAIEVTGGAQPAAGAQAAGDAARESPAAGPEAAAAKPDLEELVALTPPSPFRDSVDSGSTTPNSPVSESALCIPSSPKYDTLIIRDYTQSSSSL
Chain of mGluR8 (O00222 34-908, species assumed): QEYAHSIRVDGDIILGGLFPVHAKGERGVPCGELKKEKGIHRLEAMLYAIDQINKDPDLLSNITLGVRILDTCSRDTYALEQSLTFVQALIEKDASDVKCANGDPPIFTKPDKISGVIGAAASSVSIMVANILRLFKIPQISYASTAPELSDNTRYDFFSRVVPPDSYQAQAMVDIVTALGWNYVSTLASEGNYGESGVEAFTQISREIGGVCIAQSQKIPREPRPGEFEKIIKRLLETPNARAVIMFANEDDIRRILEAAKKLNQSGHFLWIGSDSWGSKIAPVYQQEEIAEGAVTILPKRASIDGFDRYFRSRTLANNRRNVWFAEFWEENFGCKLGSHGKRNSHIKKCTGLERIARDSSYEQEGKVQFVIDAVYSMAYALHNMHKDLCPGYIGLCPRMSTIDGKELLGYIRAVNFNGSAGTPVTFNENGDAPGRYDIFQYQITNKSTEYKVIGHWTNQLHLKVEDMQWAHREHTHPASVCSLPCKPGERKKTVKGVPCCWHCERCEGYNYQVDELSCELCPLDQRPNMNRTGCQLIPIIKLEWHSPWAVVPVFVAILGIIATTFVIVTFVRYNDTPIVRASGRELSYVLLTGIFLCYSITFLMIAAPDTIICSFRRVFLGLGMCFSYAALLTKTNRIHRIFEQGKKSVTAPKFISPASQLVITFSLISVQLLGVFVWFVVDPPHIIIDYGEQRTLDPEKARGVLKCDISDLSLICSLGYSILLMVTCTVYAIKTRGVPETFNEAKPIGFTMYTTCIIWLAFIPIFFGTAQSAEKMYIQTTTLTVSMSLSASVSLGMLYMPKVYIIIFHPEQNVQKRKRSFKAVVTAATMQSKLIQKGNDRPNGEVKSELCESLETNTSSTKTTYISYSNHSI
T1 sequence (Q14833 33-912): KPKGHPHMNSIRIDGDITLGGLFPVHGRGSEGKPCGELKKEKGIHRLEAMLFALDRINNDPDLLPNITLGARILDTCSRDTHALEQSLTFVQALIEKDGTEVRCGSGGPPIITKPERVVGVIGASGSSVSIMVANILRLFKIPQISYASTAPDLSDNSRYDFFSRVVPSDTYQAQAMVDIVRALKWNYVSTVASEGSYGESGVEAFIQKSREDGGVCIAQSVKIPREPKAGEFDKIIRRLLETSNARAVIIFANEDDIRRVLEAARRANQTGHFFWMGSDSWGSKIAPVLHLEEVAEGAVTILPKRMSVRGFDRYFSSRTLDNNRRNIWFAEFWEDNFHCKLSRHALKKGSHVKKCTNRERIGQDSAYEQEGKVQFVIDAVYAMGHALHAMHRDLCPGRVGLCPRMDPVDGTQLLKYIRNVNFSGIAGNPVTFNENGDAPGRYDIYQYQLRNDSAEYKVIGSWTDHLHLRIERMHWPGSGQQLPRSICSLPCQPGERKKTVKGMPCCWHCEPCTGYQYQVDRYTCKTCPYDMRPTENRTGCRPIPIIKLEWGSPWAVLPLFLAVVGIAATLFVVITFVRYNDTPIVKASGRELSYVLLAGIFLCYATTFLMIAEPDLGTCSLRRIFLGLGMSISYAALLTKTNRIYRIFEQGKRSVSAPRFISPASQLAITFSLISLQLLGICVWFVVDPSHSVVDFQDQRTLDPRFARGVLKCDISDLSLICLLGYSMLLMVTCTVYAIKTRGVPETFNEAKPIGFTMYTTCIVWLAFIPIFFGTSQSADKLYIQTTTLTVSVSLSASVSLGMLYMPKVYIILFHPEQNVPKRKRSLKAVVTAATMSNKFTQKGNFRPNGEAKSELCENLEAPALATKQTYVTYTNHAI
Chain of rat mGluR4 (P31423 33-912): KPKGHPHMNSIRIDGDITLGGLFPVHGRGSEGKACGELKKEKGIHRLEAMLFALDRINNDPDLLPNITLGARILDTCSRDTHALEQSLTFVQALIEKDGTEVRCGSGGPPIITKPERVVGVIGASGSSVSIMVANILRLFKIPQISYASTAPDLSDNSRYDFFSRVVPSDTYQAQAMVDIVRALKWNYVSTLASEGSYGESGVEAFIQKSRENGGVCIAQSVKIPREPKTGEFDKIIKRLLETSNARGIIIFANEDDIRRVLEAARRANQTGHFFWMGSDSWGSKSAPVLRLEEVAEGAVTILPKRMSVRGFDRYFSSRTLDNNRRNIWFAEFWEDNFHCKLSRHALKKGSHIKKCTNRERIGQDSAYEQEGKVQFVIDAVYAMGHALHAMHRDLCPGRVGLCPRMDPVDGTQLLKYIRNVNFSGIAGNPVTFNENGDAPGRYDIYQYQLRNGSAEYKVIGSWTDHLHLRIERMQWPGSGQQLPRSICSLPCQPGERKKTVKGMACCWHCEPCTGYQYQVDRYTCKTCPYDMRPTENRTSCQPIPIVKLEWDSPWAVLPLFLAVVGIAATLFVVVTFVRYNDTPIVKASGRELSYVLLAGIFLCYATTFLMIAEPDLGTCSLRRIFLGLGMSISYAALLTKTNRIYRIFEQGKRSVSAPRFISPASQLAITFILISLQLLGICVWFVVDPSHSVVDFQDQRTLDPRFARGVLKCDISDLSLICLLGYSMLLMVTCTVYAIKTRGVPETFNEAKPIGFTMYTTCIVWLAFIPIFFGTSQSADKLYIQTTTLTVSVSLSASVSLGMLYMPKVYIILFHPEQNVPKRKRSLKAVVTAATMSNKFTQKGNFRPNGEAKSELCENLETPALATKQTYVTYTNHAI

Row | Structure (SMILES) | mGluR4 PAM activity (in words) [2] | RLM (% remaining) [3] [% remaining] | HLM (% remaining) [4] [% remaining] | further results
1 | O=C(Nc1ccccc1)[C@]12C[C@H]1/C(=N\O)c1ccccc1O2 [Compound 1, (-)-PHCCC] | – | – | – | FS (h) [1]: 7.0±0.2
2 | O=C(Nc1ccc(Cl)c(Cl)c1)C1CCCCC1 [Compound 8h] | inactive | – | – | –
3 | O=C(Nc1ccc(Cl)c(Cl)c1)c1ccccc1 [Compound 8i] | inactive | – | – | –
4 | O=C(Nc1ccc(Cl)c(Cl)c1)c1cnccn1 [Compound 8k] | lost activity | – | – | –
5 | O=C(Nc1ccc(Cl)c(Cl)c1)c1ccncn1 [Compound 8l] | retained potency | – | – | –
6 | COc1cc(NC(=O)c2ccccn2)ccc1F [Compound 9a] | – | 6.3 | 3.0 | –
7 | COc1cc(NC(=O)c2ccccn2)ccc1Cl [Compound 9b] | submicromolar potency | 1.8 | 5.3 | potency at rat mGluR4 (in words) [5]: submicromolar potency; separation in potencies compared to mGluR4 [6]: > 20 fold; PAM activity at mGluR5 (in words) [6]: weak PAM activity; separation in potencies compared to mGluR4 [7]: > 20 fold; PAM activity at mGluR8 (in words) [7]: weak PAM activity; central penetration (in words) [8]: centrally penetrant
8 | O=C(Nc1cccc(OC(F)F)c1)c1ccccn1 [Compound 9c] | submicromolar potency | 1.4 | 2.4 | potency at rat mGluR4 (in words) [5]: submicromolar potency; separation in potencies compared to mGluR4 [6]: > 20 fold; PAM activity at mGluR5 (in words) [6]: weak PAM activity; separation in potencies compared to mGluR4 [7]: > 20 fold; PAM activity at mGluR8 (in words) [7]: weak PAM activity; central penetration (in words) [8]: centrally penetrant
9 | O=C(Nc1cccc(OC(F)(F)F)c1)c1ccccn1 [Compound 9d] | – | 20 | 22 | loss of activity ([2]; 9d (trifluoromethoxy) vs. 9c (difluoromethoxy)): > 10 fold
10 | O=C(Nc1cccc(C(F)(F)F)c1)c1ccccn1 [Compound 9e] | – | 19 | – | –
11 | O=C(Nc1cccc(C(F)(F)F)n1)c1ccccn1 [Compound 9o] | inactive | – | – | –
12 | COc1cc(NC(=O)c2ccccn2)ncn1 [Compound 9p] | inactive | – | – | –
